Assay results: PubChem BioAssay AID1963841 (Molecular Pharmacology Branch, DTP, NCI, 2024)

Test system: 439559-082-T-J2-PDC spheroid viability
Assay: Anticancer human tumor 439559-082-T-J2-PDC patient-derived colon adenocarcinoma cell line growth inhibition [POLQ]
Conditions: spheroids with HUVEC and MSC; for IC50: curve of first compound; for viability, T/C: stronger effect = lower value
Summary of the method: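 Complex spheroid viability model combining PDC tumour cells with endothelial (HUVEC) and MSC stromal cells. Novobiocin, ART-558 or RP6685 were tested singly and in combination with standard and investigational anticancer drugs. Each was titrated in half-log steps from near clinical Cmax, or from 10 microM where Cmax was unknown.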

[1] = second compound 0.0316 µM, first compound 0.0316 µM
[2] = second compound 0.0316 µM, first compound 0.1 µM
[3] = second compound 0.0316 µM, first compound 0.316 µM
[4] = second compound 0.0316 µM, first compound 1 µM
[5] = second compound 0.1 µM, first compound 0.0316 µM
[6] = second compound 0.1 µM, first compound 0.1 µM
[7] = second compound 0.1 µM, first compound 0.316 µM
[8] = second compound 0.1 µM, first compound 1 µM
[9] = second compound 0.316 µM, first compound 0.0316 µM
[10] = second compound 0.316 µM, first compound 0.1 µM
[11] = second compound 0.316 µM, first compound 0.316 µM
[12] = second compound 0.316 µM, first compound 1 µM
[13] = second compound 1 µM, first compound 0.0316 µM
[14] = second compound 1 µM, first compound 0.1 µM
[15] = second compound 1 µM, first compound 0.316 µM
[16] = second compound 1 µM, first compound 1 µM
[17] = second compound 3.16 µM, first compound 0.0316 µM
[18] = second compound 3.16 µM, first compound 0.1 µM
[19] = second compound 3.16 µM, first compound 0.316 µM
[20] = second compound 3.16 µM, first compound 1 µM
[21] = second compound 10 µM, first compound 0.0316 µM
[22] = second compound 10 µM, first compound 0.1 µM
[23] = second compound 10 µM, first compound 0.316 µM
[24] = second compound 10 µM, first compound 1 µM
[25] = second compound 0.0316 µM, first compound 3.16 µM
[26] = second compound 0.0316 µM, first compound 10 µM
[27] = second compound 0.1 µM, first compound 3.16 µM
[28] = second compound 0.1 µM, first compound 10 µM
[29] = second compound 0.316 µM, first compound 3.16 µM
[30] = second compound 0.316 µM, first compound 10 µM
[31] = second compound 1 µM, first compound 3.16 µM
[32] = second compound 1 µM, first compound 10 µM
[33] = second compound 3.16 µM, first compound 3.16 µM
[34] = second compound 3.16 µM, first compound 10 µM
[35] = second compound 10 µM, first compound 3.16 µM
[36] = second compound 10 µM, first compound 10 µM
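Also: spheroids exposed to compounds for seven days before readout.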
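For viability, T/C in this document: 100% = DMSO vehicle control viability.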

## C=CCn1c(=O)c2cnc(Nc3ccc(N4CCN(C)CC4)cc3)nc2n1-c1cccc(C(C)(C)O)n1 + Cc1cccc(N(C)C(=O)C2C(O)CCN2c2nc(C)cc(C(F)(F)F)c2C#N)c1
Second compound 0.0316 µM
  IC50: > 1 µM
Second compound 0.1 µM
  IC50: > 1 µM
Second compound 0.316 µM
  IC50: > 1 µM
Second compound 1 µM
  IC50: > 1 µM
Second compound 3.16 µM
  IC50: > 1 µM
Second compound 10 µM
  IC50: > 1 µM
Second compound 0.0316 µM, first compound 0.00316 µM
  viability, T/C: 104%
Second compound 0.0316 µM, first compound 0.01 µM
  viability, T/C: 96.8%
[1]
  viability, T/C: 93.3%
[2]
  viability, T/C: 92.1%
[3]
  viability, T/C: 83.7%
[4]
  viability, T/C: 78.9%
Second compound 0.1 µM, first compound 0.00316 µM
  viability, T/C: 98%
Second compound 0.1 µM, first compound 0.01 µM
  viability, T/C: 103%
[5]
  viability, T/C: 107%
[6]
  viability, T/C: 88.3%
[7]
  viability, T/C: 93.1%
[8]
  viability, T/C: 84.1%
Second compound 0.316 µM, first compound 0.00316 µM
  viability, T/C: 104%
Second compound 0.316 µM, first compound 0.01 µM
  viability, T/C: 104%
[9]
  viability, T/C: 85.8%
[10]
  viability, T/C: 95.3%
[11]
  viability, T/C: 100%
[12]
  viability, T/C: 71%
Second compound 1 µM, first compound 0.00316 µM
  viability, T/C: 86.3%
Second compound 1 µM, first compound 0.01 µM
  viability, T/C: 99.8%
[13]
  viability, T/C: 102%
[14]
  viability, T/C: 102%
[15]
  viability, T/C: 93.4%
[16]
  viability, T/C: 75.3%
Second compound 3.16 µM, first compound 0.00316 µM
  viability, T/C: 94.6%
Second compound 3.16 µM, first compound 0.01 µM
  viability, T/C: 105%
[17]
  viability, T/C: 91.7%
[18]
  viability, T/C: 95.4%
[19]
  viability, T/C: 96.5%
[20]
  viability, T/C: 76.8%
Second compound 10 µM, first compound 0.00316 µM
  viability, T/C: 100%
Second compound 10 µM, first compound 0.01 µM
  viability, T/C: 90.6%
[21]
  viability, T/C: 99.3%
[22]
  viability, T/C: 97.8%
[23]
  viability, T/C: 93.5%
[24]
  viability, T/C: 74.3%

## CCCS(=O)(=O)Nc1ccc(F)c(C(=O)c2c[nH]c3ncc(-c4ccc(Cl)cc4)cc23)c1F + Cc1cccc(N(C)C(=O)C2C(O)CCN2c2nc(C)cc(C(F)(F)F)c2C#N)c1
Second compound 0.0316 µM
  IC50: > 10 µM
Second compound 0.1 µM
  IC50: > 10 µM
Second compound 0.316 µM
  IC50: > 10 µM
Second compound 1 µM
  IC50: > 10 µM
Second compound 3.16 µM
  IC50: > 10 µM
Second compound 10 µM
  IC50: > 10 µM
[1]
  viability, T/C: 103%
[2]
  viability, T/C: 106%
[3]
  viability, T/C: 92.1%
[4]
  viability, T/C: 97%
[25]
  viability, T/C: 94.8%
[26]
  viability, T/C: 80.3%
[5]
  viability, T/C: 100%
[6]
  viability, T/C: 96.1%
[7]
  viability, T/C: 91.5%
[8]
  viability, T/C: 94.4%
[27]
  viability, T/C: 113%
[28]
  viability, T/C: 75.8%
[9]
  viability, T/C: 93.5%
[10]
  viability, T/C: 94.4%
[11]
  viability, T/C: 106%
[12]
  viability, T/C: 86%
[29]
  viability, T/C: 99.4%
[30]
  viability, T/C: 79.5%
[13]
  viability, T/C: 96.2%
[14]
  viability, T/C: 103%
[15]
  viability, T/C: 92.8%
[16]
  viability, T/C: 95.3%
[31]
  viability, T/C: 91.5%
[32]
  viability, T/C: 78.3%
[17]
  viability, T/C: 99%
[18]
  viability, T/C: 90.2%
[19]
  viability, T/C: 94.9%
[20]
  viability, T/C: 102%
[33]
  viability, T/C: 102%
[34]
  viability, T/C: 74.4%
[21]
  viability, T/C: 101%
[22]
  viability, T/C: 96.3%
[23]
  viability, T/C: 82.8%
[24]
  viability, T/C: 90.2%
[35]
  viability, T/C: 90.2%
[36]
  viability, T/C: 70.5%

## CNCc1ccc(-c2[nH]c3cc(F)cc4c3c2CCNC4=O)cc1 + Cc1cccc(N(C)C(=O)C2C(O)CCN2c2nc(C)cc(C(F)(F)F)c2C#N)c1
Second compound 0.0316 µM
  IC50: > 10 µM
Second compound 0.1 µM
  IC50: > 10 µM
Second compound 0.316 µM
  IC50: > 10 µM
Second compound 1 µM
  IC50: > 10 µM
Second compound 3.16 µM
  IC50: > 10 µM
Second compound 10 µM
  IC50: > 10 µM
[1]
  viability, T/C: 94.8%
[2]
  viability, T/C: 108%
[3]
  viability, T/C: 99.3%
[4]
  viability, T/C: 96.5%
[25]
  viability, T/C: 102%
[26]
  viability, T/C: 110%
[5]
  viability, T/C: 103%
[6]
  viability, T/C: 105%
[7]
  viability, T/C: 108%
[8]
  viability, T/C: 95.8%
[27]
  viability, T/C: 101%
[28]
  viability, T/C: 96.8%
[9]
  viability, T/C: 105%
[10]
  viability, T/C: 105%
[11]
  viability, T/C: 98.3%
[12]
  viability, T/C: 114%
[29]
  viability, T/C: 102%
[30]
  viability, T/C: 102%
[13]
  viability, T/C: 99.3%
[14]
  viability, T/C: 92.6%
[15]
  viability, T/C: 92.2%
[16]
  viability, T/C: 106%
[31]
  viability, T/C: 95.7%
[32]
  viability, T/C: 106%
[17]
  viability, T/C: 105%
[18]
  viability, T/C: 98.3%
[19]
  viability, T/C: 96.9%
[20]
  viability, T/C: 99.1%
[33]
  viability, T/C: 102%
[34]
  viability, T/C: 99.5%
[21]
  viability, T/C: 88.4%
[22]
  viability, T/C: 92.8%
[23]
  viability, T/C: 93.5%
[24]
  viability, T/C: 91.1%
[35]
  viability, T/C: 97.2%
[36]
  viability, T/C: 100%
